# Data reported in PubChem BioAssay AID330 (DTP/NCI, 2004).
# “And” between values parts separate entries of the source, which are not always exact repeats. Equal values may be shown once. Inconclusive results and toxic doses are left out.
# System: P388 leukemia ip, CD2F1 mice, survival T/C
# Assay: NCI In Vivo Anticancer Drug Screen. Data for tumor model P388 Leukemia (intraperitoneal) in CD2F1 (CDF1) mice
# Details: endpoint: median survival time, higher = longer survival
# How it was run: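 Mice carrying the transplanted tumor received test compound or vehicle. Survival was recorded in each group, and the value is the treated-group measurement divided by that of the vehicle-treated control group.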
# [1] = dose: 50.0 mg/kg/injection, schedule: Q01DX009 (ip), vehicle: saline
# [2] = dose: 100.0 mg/kg/injection, schedule: Q01DX009 (ip), vehicle: saline
# [3] = dose: 200.0 mg/kg/injection, schedule: Q01DX009 (ip), vehicle: saline
# [4] = dose: 12.5 mg/kg/injection, schedule: Q01DX009 (ip), vehicle: saline
# [5] = dose: 25.0 mg/kg/injection, schedule: Q01DX009 (ip), vehicle: saline
# [6] = dose: 25.0 mg/kg/injection, schedule: Q04DX003 (ip), vehicle: saline
# [7] = dose: 50.0 mg/kg/injection, schedule: Q04DX003 (ip), vehicle: saline
# [8] = dose: 50.0 mg/kg/injection, schedule: Q01DX005 (ip), vehicle: Klucel (hydroxypropylcellulose) (HPC)
# [9] = dose: 100.0 mg/kg/injection, schedule: Q01DX005 (ip), vehicle: Klucel (hydroxypropylcellulose) (HPC)
# [10] = dose: 200.0 mg/kg/injection, schedule: Q01DX005 (ip), vehicle: Klucel (hydroxypropylcellulose) (HPC)
# [11] = dose: 60.0 mg/kg/injection, schedule: Q01DX005 (ip), vehicle: saline with Tween-80
# [12] = dose: 120.0 mg/kg/injection, schedule: Q01DX005 (ip), vehicle: saline with Tween-80
# [13] = dose: 240.0 mg/kg/injection, schedule: Q01DX005 (ip), vehicle: saline with Tween-80
# [14] = dose: 60.0 mg/kg/injection, schedule: Q01DX005 (ip), vehicle: Klucel (hydroxypropylcellulose) (HPC)
# [15] = dose: 120.0 mg/kg/injection, schedule: Q01DX005 (ip), vehicle: Klucel (hydroxypropylcellulose) (HPC)
# [16] = dose: 240.0 mg/kg/injection, schedule: Q01DX005 (ip), vehicle: Klucel (hydroxypropylcellulose) (HPC)
# [17] = dose: 60.0 mg/kg/injection, schedule: Q01DX005 (ip), vehicle: saline
# [18] = dose: 120.0 mg/kg/injection, schedule: Q01DX005 (ip), vehicle: saline
# [19] = dose: 240.0 mg/kg/injection, schedule: Q01DX005 (ip), vehicle: saline
# [20] = dose: 25.0 mg/kg/injection, schedule: Q01DX005 (ip), vehicle: Klucel (hydroxypropylcellulose) (HPC)
smiles,measurement,setting,value
CCC(c1ccc(OCC(=O)NCCCl)cc1)C(CC)c1ccc(OCC(=O)NCCCl)cc1 (centres undefined),T/C,[1],97 % of control
same,T/C,[2],93 % of control
same,T/C,[3],88 % of control
CCCC(C(=O)OCCN(CC)CC)(c1ccccc1)c1ccccc1,T/C,[4],108 % of control
same,T/C,"dose: 12.5 mg/kg/injection, schedule: Q04DX003 (ip), vehicle: saline",100 % of control
same,T/C,[5],100 % of control
same,T/C,[6],100 % of control
same,T/C,[1],91 % of control
same,T/C,[7],100 % of control
O=C(O)CC(=O)NC1c2ccccc2Oc2ccccc21,T/C,[8],94 % of control
same,T/C,[9],97 % of control
same,T/C,[10],99 % of control
COc1ccccc1NC(=O)C1=CNC(C)=C(C(=O)Nc2ccccc2OC)C1/C=C/c1ccccc1 (centres undefined),T/C,[11],100 % of control
same,T/C,[12],105 % of control
same,T/C,[13],105 % of control
O=c1sc(N=Nc2ccccc2)nn1-c1ccccc1,T/C,"dose: 50.0 mg/kg/injection, schedule: Q04DX003 (ip), vehicle: other",90 % of control
same,T/C,"dose: 100.0 mg/kg/injection, schedule: Q04DX003 (ip), vehicle: other",95 % of control
same,T/C,"dose: 200.0 mg/kg/injection, schedule: Q04DX003 (ip), vehicle: other",95 % of control
O=C1CC(c2ccc(Cl)cc2)OC(c2ccc(Cl)cc2)C1 (centres undefined),T/C,[1],104 % of control
same,T/C,[2],102 % of control
same,T/C,[3],98 % of control
Nc1ncnc2[nH]c(=O)[nH]c12,T/C,[6],95 % of control
same,T/C,[7],104 % of control
same,T/C,"dose: 100.0 mg/kg/injection, schedule: Q04DX003 (ip), vehicle: saline",104 % of control
c1ccc(-c2nnc3sc4ccccc4n23)cc1,T/C,[14],105 % of control
same,T/C,[15],96 % of control
same,T/C,[16],94 % of control
C[C@H](N)C(O)/C=C/c1ccccc1 (some centres undefined),T/C,"dose: 10.0 mg/kg/injection, schedule: Q01DX005 (ip), vehicle: saline",103 % of control
same,T/C,"dose: 20.0 mg/kg/injection, schedule: Q01DX005 (ip), vehicle: saline",93 % of control
same,T/C,"dose: 40.0 mg/kg/injection, schedule: Q01DX005 (ip), vehicle: saline",97 % of control
CN1C(NC(=O)C(C)(C)O)C(C)(C)C(C)(C)C1NC(=O)C(C)(C)O (centres undefined),T/C,"dose: 30.0 mg/kg/injection, schedule: Q01DX005 (ip), vehicle: saline with Tween-80",121 % of control
same,T/C,[11],123 % of control
same,T/C,[12],151 % of control
same,T/C,[13],123 % of control
Cc1cccc(C(=O)/C=C2/CCCN2C)c1,T/C,"dose: 100.0 mg/kg/injection, schedule: Q04DX003 (ip), vehicle: saline with Tween-80",110 % of control
same,T/C,"dose: 200.0 mg/kg/injection, schedule: Q04DX003 (ip), vehicle: saline with Tween-80",93 % of control
C/C=C/Cc1n[nH]c(=O)c2c(C)[nH]nc12,T/C,"dose: 25.0 mg/kg/injection, schedule: Q04DX002 (ip), vehicle: Klucel (hydroxypropylcellulose) (HPC)",105 % of control
same,T/C,"dose: 50.0 mg/kg/injection, schedule: Q04DX002 (ip), vehicle: Klucel (hydroxypropylcellulose) (HPC)",103 % of control
same,T/C,"dose: 100.0 mg/kg/injection, schedule: Q04DX002 (ip), vehicle: Klucel (hydroxypropylcellulose) (HPC)",104 % of control and 90 % of control
Cc1nn(CCO)c2nc(N)nc(N)c12,T/C,"dose: 100.0 mg/kg/injection, schedule: Q01DX001 (ip), vehicle: suspension in saline",104 % of control
same,T/C,"dose: 200.0 mg/kg/injection, schedule: Q01DX001 (ip), vehicle: suspension in saline",101 % of control
same,T/C,"dose: 400.0 mg/kg/injection, schedule: Q01DX001 (ip), vehicle: suspension in saline",100 % of control
COc1ccc(Nc2ncc(C)n2-c2ccc(OC)cc2)cc1,T/C,"dose: 50.0 mg/kg/injection, schedule: Q01DX009 (ip), vehicle: saline with Tween-80",98 % of control
same,T/C,"dose: 100.0 mg/kg/injection, schedule: Q01DX009 (ip), vehicle: saline with Tween-80",98 % of control
same,T/C,"dose: 200.0 mg/kg/injection, schedule: Q01DX009 (ip), vehicle: saline with Tween-80",102 % of control
CCC12CCCN3CCC4(c5cccc(O)c5NC4CC1)C32 (centres undefined),T/C,[17],101 % of control
same,T/C,[18],94 % of control
same,T/C,[19],101 % of control
CCOP(=O)(OCC)C1CCCN2CCc3c([nH]c4ccccc34)C12 (centres undefined),T/C,[4],98 % of control
same,T/C,[5],96 % of control
same,T/C,[1],100 % of control and 89 % of control
same,T/C,[3],100 % of control
O=C1c2ccccc2-c2c1c1ccccc1c(=O)n2-c1ccccc1,T/C,"dose: 50.0 mg/kg/injection, schedule: Q01DX005 (ip), vehicle: saline with Tween-80",102 % of control
same,T/C,"dose: 100.0 mg/kg/injection, schedule: Q01DX005 (ip), vehicle: saline with Tween-80",107 % of control
same,T/C,"dose: 200.0 mg/kg/injection, schedule: Q01DX005 (ip), vehicle: saline with Tween-80",100 % of control
CC(=O)/C(=C\c1ccc([N+](=O)[O-])o1)C(=O)CCN(C)C,T/C,"dose: 7.5 mg/kg/injection, schedule: Q01DX005 (ip), vehicle: Klucel (hydroxypropylcellulose) (HPC)",97 % of control
same,T/C,"dose: 15.0 mg/kg/injection, schedule: Q01DX005 (ip), vehicle: Klucel (hydroxypropylcellulose) (HPC)",107 % of control
CC1=NN(C(=O)c2ccccc2)C(=O)C1N=Nc1ccc(C(=O)O)cc1 (centres undefined),T/C,[20],110 % of control
same,T/C,[8],95 % of control
same,T/C,[9],104 % of control
same,T/C,[10],99 % of control
O=C1NC(=S)N/C1=C/c1ccc2c(c1)CCC2,T/C,"dose: 100.0 mg/kg/injection, schedule: Q01DX001 (ip), vehicle: saline with Tween-80",100 % of control
same,T/C,"dose: 200.0 mg/kg/injection, schedule: Q01DX001 (ip), vehicle: saline with Tween-80",100 % of control
same,T/C,"dose: 400.0 mg/kg/injection, schedule: Q01DX001 (ip), vehicle: saline with Tween-80",95 % of control
[Cl][Hg][CH]1CCC2OC1CC[CH]2[Hg][Cl] (centres undefined),T/C,"dose: 1.56 mg/kg/injection, schedule: Q01DX009 (ip), vehicle: saline with Tween-80",112 % of control
same,T/C,"dose: 3.12 mg/kg/injection, schedule: Q01DX009 (ip), vehicle: saline with Tween-80",105 % of control and 118 % of control
same,T/C,"dose: 6.25 mg/kg/injection, schedule: Q01DX009 (ip), vehicle: saline with Tween-80",121 % of control and 91 % of control
same,T/C,"dose: 12.5 mg/kg/injection, schedule: Q01DX009 (ip), vehicle: saline with Tween-80",94 % of control
N#Cc1ccc(-c2nc3ncnc(N)c3[nH]2)cc1,T/C,[14],92 % of control
same,T/C,[15],90 % of control
same,T/C,[16],91 % of control
Cc1cc2cc3c4c(nnc(NN)c4c2o1)-c1ccccc1CC3,T/C,"dose: 3.75 mg/kg/injection, schedule: Q01DX005 (ip), vehicle: saline with Tween-80",99 % of control
same,T/C,"dose: 7.5 mg/kg/injection, schedule: Q01DX005 (ip), vehicle: saline with Tween-80",101 % of control
same,T/C,"dose: 15.0 mg/kg/injection, schedule: Q01DX005 (ip), vehicle: saline with Tween-80",99 % of control
COC(=O)Nc1ccc(C(=O)c2ccccc2)cc1,T/C,[1],98 % of control
same,T/C,[2],99 % of control
same,T/C,[3],93 % of control
O=C(c1c(F)c(F)c(F)c(F)c1F)n1ccnc1,T/C,[17],104 % of control
same,T/C,[18],101 % of control
same,T/C,[19],87 % of control
CC(C)(O)CCC(=O)[C@](C)(O)[C@H]1[C@H](O)C[C@@]2(C)[C@@H]3CC=C4[C@@H](C[C@@H](O)[C@@H](O)C4(C)C)[C@]3(C)C(=O)C[C@]12C,T/C,"dose: 1.25 mg/kg/injection, schedule: Q01DX005 (ip), vehicle: saline with Tween-80",100 % of control
same,T/C,"dose: 2.5 mg/kg/injection, schedule: Q01DX005 (ip), vehicle: saline with Tween-80",97 % of control
same,T/C,"dose: 5.0 mg/kg/injection, schedule: Q01DX005 (ip), vehicle: saline with Tween-80",95 % of control
same,T/C,"dose: 10.0 mg/kg/injection, schedule: Q01DX005 (ip), vehicle: saline with Tween-80",104 % of control
O=C(Nc1ccc(N=C(NC2CCCCC2)c2ccccc2)cc1)c1ccc(C(=O)Nc2ccc(N=C(NC3CCCCC3)c3ccccc3)cc2)cc1,T/C,"dose: 12.5 mg/kg/injection, schedule: Q01DX005 (ip), vehicle: Klucel (hydroxypropylcellulose) (HPC)",104 % of control
same,T/C,[20],103 % of control
same,T/C,[8],104 % of control and 111 % of control
same,T/C,[9],91 % of control
same,T/C,[10],106 % of control
